In ChEMBL document CHEMBL1158685, “Potent CYP3A4 inhibitory constituents of Piper cubeba” (J Nat Prod, 2005):

Columns and labels:
[1] = biological target: Cytochrome P450 3A4 (Homo sapiens, UniProt P08684); experiment: Inhibition of human liver microsome CYP3A4 in assessed as [14C]formaldehyde formation; type: ADME, microsomes
[2] = biological target: Cytochrome P450 2D6 (Homo sapiens, UniProt P10635); experiment: Inhibition of human liver microsome CYP2D6 in assessed as [14C]formaldehyde formation; type: ADME, microsomes
Chain of Cytochrome P450 2D6 (P10635 whole entry): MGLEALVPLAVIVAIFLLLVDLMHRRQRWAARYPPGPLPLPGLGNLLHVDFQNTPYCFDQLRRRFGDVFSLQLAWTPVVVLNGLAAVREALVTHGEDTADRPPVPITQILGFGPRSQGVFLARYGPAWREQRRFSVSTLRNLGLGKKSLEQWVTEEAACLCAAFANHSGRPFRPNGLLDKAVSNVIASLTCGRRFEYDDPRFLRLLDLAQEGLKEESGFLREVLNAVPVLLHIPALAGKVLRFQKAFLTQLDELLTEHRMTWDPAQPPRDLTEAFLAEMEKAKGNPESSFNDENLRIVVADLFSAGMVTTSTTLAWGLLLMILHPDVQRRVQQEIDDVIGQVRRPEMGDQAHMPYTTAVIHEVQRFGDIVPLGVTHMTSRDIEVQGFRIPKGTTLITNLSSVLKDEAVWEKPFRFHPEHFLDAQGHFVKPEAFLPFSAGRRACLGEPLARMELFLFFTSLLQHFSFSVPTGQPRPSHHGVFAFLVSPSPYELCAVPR

Chain of Cytochrome P450 3A4 (P08684 whole entry): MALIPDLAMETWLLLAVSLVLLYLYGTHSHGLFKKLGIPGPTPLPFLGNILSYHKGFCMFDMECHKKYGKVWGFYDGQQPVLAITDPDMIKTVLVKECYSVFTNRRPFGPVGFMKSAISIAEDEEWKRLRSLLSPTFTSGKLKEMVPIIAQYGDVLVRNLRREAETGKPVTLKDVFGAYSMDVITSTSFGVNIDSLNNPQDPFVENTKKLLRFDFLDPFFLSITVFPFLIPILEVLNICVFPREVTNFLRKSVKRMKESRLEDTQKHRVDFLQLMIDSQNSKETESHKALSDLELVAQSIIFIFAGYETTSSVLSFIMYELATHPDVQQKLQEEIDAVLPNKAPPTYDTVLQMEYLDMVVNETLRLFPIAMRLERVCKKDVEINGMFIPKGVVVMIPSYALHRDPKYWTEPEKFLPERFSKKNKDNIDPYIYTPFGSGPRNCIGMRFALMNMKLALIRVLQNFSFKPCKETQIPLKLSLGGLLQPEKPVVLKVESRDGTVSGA

| Structure (SMILES) | IC50 [1] | IC50 [2] |
| --- | --- | --- |
| O[C@H]1OC[C@H](Cc2ccc3c(c2)OCO3)[C@H]1Cc1ccc2c(c1)OCO2 | 9.1 µM | 35.5 µM |
| COc1cc(C[C@@H](CO)[C@H](CO)Cc2ccc3c(c2)OCO3)cc(OC)c1OC | 0.8 µM | > 100 µM |
| COc1cc(C[C@H]2C(=O)OC[C@@H]2Cc2ccc3c(c2)OCO3)cc(OC)c1OC | 1 µM | 95.7 µM |
| COc1cc(C[C@H]2COC(=O)[C@@H]2Cc2cc(OC)c(OC)c(OC)c2)cc(OC)c1OC | 14.9 µM | > 100 µM |
| COc1cc(C[C@H]2C(O)OC[C@@H]2Cc2ccc3c(c2)OCO3)cc(OC)c1OC (stereo not given in full) | 0.83 µM | > 100 µM |
| COc1cc(C[C@H]2COC(O)[C@@H]2Cc2cc(OC)c(OC)c(OC)c2)cc(OC)c1OC (stereo not given in full) | 15 µM | > 100 µM |
| COc1cc(OC)c(OC)cc1CC(C)=O | 28.7 µM | > 100 µM |
| COc1cc(C[C@H]2COC(=O)[C@@H]2Cc2cc(OC)c3c(c2)OCO3)cc(OC)c1O |  | > 100 µM |
| COc1cc(C[C@@H]2[C@@H](Cc3cc(OC)c4c(c3)OCO4)CO[C@@H]2O)cc(OC)c1OC | 0.83 µM | > 100 µM |
| CC1=C[C@@H](O)[C@@]23O[C@]2(C)C[C@@H]2OC(=O)C(C)=C2C[C@@H]13 | 98.2 µM | > 100 µM |
| CC1=CC(=O)C2=C(C)C[C@@H]3OC(=O)C(C)=C3C[C@@H]12 | 8.8 µM | > 100 µM |
| CO[C@@H]1OC[C@H](Cc2ccc3c(c2)OCO3)[C@H]1Cc1ccc2c(c1)OCO2 | 7.7 µM | > 100 µM |
| OC[C@H](Cc1ccc2c(c1)OCO2)[C@H](CO)Cc1ccc2c(c1)OCO2 [DIHYDROCUBEBIN] | 9.5 µM | 17.5 µM |
| CCOc1cc(C[C@H]2COC(O)[C@@H]2Cc2cc(OC)c(OC)c(OC)c2)cc2c1OCO2 (stereo not given in full) [ETHOXYCLUSIN] | 0.44 µM | 87.9 µM |
| O=C1OC[C@H](Cc2ccc3c(c2)OCO3)[C@H]1Cc1ccc2c(c1)OCO2 [HINOKININ] | 8 µM | 26.5 µM |
| COc1cc(OC)c([C@@H]2[C@H](C)[C@@H](C)[C@H]2c2cc(OC)c(OC)cc2OC)cc1OC [MAGNOSALIN] | 85.4 µM | > 100 µM |
| COc1cc([C@H]2OC[C@@H]3C(c4cc(OC)c(O)c(OC)c4)OC[C@H]23)ccc1O (stereo not given in full) [MEDIORESINOL] | 13.7 µM | > 100 µM |
| C/C=C/c1cc(OC)c(OC)cc1OC [TRANS-ASARONE] | 92.3 µM | > 100 µM |
